Source: ChEMBL document CHEMBL4265943, “Design and synthesis of potent dual inhibitors of JAK2 and HDAC based on fusing the pharmacophores of XL019 and vorinostat” (Eur J Med Chem, 2018)

How the values were obtained:
[1] = system: HCT-116; assay: Induction of apoptosis in human HCT116 cells assessed as live cells at 1.14 uM after 72 hrs by Annexin V-FITC/propidium iodide staining based flow cytometry (reference value: 95.7%); assay type: functional
[2] = Antiproliferative activity against mouse TAMH cells after 72 hrs by MTT assay; assay type: cell-based
[3] = Selectivity index, ratio of CC50 for human AC10 cells to IC50 for human MDA-MB-231 cells; assay type: toxicity; settings: AC10 cells (CC50) and MDA-MB-231 cells (IC50)
[4] = organism: Homo sapiens; assay: Selectivity ratio of IC50 for human TYK2 to IC50 for human JAK2
[5] = system: MDA-MB-231; assay: Induction of apoptosis in human MDA-MB-231 cells assessed as necrotic cells at 0.9 uM after 72 hrs by Annexin V-FITC/propidium iodide staining based flow cytometry (reference value: 5.45%); assay type: functional
[6] = system: MDA-MB-231; assay: Induction of apoptosis in human MDA-MB-231 cells assessed as early apoptotic cells at 0.9 uM after 72 hrs by Annexin V-FITC/propidium iodide staining based flow cytometry (reference value: 1.45%); assay type: functional
[7] = system: MCF7; assay: Induction of apoptosis in human MCF7 cells assessed as necrotic cells at 0.86 uM after 72 hrs by Annexin V-FITC/propidium iodide staining based flow cytometry (reference value: 2.17%); assay type: functional
[8] = system: MCF7; assay: Induction of apoptosis in human MCF7 cells assessed as late apoptotic cells at 0.86 uM after 72 hrs by Annexin V-FITC/propidium iodide staining based flow cytometry (reference value: 1.59%); assay type: functional
[9] = Selectivity index, ratio of CC50 for mouse TAMH cells to IC50 for human MDA-MB-231 cells; assay type: toxicity; settings: TAMH cells (CC50) and MDA-MB-231 cells (IC50)
[10] = system: HCT-116; assay: Antiproliferative activity against human HCT116 cells after 72 hrs by MTT assay; assay type: functional, cell-based; settings: HCT-116, 72 h
[11] = organism: Homo sapiens; assay: Selectivity ratio of IC50 for human JAK1 to IC50 for human JAK2
[12] = target: Histone deacetylase 1 (Homo sapiens, UniProt Q13547); assay: Inhibition of HDAC1 (unknown origin) using Arg-His-Lys-Lys(Ac) as substrate preincubated with enzyme followed by substrate addition for 2 hrs and measured for 1.5 hrs at 15 mins time interval by fluorescence assay
[13] = Selectivity index, ratio of CC50 for human AC10 cells to IC50 for human MCF7 cells; assay type: toxicity; settings: AC10 cells (CC50) and MCF7 cells (IC50)
[14] = target: T1, Protein deacetylase HDAC6 (Homo sapiens, UniProt Q9UBN7); assay: Inhibition of HDAC6 (unknown origin) using Arg-His-Lys-Lys(Ac) as substrate preincubated with enzyme followed by substrate addition for 2 hrs and measured for 1.5 hrs at 15 mins time interval by fluorescence assay
T1 sequence (Q9UBN7 whole entry): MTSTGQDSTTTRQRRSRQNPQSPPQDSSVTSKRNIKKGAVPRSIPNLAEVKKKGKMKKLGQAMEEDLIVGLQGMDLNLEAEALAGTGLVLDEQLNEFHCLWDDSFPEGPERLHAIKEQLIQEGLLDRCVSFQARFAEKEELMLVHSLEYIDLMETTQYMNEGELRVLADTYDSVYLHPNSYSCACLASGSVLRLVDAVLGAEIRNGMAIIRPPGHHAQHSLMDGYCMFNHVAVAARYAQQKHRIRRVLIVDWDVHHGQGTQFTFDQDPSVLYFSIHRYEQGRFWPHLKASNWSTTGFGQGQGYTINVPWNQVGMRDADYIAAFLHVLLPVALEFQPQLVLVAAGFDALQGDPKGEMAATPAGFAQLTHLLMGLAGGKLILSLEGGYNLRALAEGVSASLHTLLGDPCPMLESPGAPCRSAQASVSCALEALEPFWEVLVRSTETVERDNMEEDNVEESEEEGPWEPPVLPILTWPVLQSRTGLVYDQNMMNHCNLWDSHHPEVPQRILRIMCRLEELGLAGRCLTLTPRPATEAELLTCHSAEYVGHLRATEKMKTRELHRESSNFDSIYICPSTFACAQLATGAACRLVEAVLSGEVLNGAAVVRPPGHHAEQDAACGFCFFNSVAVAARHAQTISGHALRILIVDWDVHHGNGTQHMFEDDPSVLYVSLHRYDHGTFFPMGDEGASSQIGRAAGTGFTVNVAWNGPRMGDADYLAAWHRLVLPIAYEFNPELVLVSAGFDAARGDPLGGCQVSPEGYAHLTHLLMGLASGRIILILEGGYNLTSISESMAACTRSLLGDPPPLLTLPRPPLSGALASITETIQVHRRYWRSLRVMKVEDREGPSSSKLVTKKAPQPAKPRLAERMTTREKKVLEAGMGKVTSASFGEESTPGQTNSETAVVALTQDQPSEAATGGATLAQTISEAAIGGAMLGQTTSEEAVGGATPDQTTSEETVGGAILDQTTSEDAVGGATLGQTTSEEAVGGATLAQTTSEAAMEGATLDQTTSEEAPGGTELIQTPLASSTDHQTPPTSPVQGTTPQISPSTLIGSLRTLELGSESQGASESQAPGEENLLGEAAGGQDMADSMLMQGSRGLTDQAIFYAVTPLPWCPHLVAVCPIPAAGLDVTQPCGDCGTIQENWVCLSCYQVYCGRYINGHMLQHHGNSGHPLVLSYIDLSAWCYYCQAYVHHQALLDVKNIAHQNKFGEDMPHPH

[15] = system: PC-3; assay: Induction of apoptosis in human PC3 cells assessed as early apoptotic cells at 0.71 uM after 72 hrs by Annexin V-FITC/propidium iodide staining based flow cytometry (reference value: […]%); assay type: functional
[16] = system: HCT-116; assay: Induction of apoptosis in human HCT116 cells assessed as necrotic cells at 1.14 uM after 72 hrs by Annexin V-FITC/propidium iodide staining based flow cytometry (reference value: 1.54%); assay type: functional

Histone deacetylase 1, sequence (Q13547 whole entry): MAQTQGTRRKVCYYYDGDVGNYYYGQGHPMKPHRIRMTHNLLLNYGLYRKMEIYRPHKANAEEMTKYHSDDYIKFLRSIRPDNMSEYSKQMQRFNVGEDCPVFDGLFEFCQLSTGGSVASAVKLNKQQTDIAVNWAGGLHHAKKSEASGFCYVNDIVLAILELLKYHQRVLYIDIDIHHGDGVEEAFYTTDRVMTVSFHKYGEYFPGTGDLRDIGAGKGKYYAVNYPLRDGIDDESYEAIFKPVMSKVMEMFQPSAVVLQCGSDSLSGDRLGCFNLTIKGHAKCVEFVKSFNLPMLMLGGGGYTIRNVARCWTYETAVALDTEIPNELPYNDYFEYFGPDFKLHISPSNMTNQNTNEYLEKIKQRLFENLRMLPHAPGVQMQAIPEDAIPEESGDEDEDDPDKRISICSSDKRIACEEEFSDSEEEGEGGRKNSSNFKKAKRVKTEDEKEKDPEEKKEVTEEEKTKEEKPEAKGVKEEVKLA

With `O=C(CCCCCCC(=O)Nc1ccc(-c2ccnc(Nc3ccc(N4CCOCC4)cc3)n2)cc1)NO` as the compound, how does the Activity [1] read?
Its Activity is 52.4%.

What about the CC50 at 72 h [2] of the same compound?
Its CC50 at 72 h is 6390 nM.

And the selectivity ratio [3]?
The selectivity ratio was 4.02.

And the Ratio IC50 [4]?
Its Ratio IC50 is 25.6.

What about the Activity [5] of the same compound?
Its Activity is 5.87%.

What about the Activity [6] of the same compound?
The Activity was 43.86%.

What about the Activity [7] of the same compound?
The Activity was 7.97%.

What about the Activity [8] of the same compound?
Its Activity is 24.84%.

What about the selectivity ratio [9] of the same compound?
Its selectivity ratio is 6.45.

And the IC50 [10]?
The IC50 was 1050 nM.

And the Ratio IC50 [11]?
Its Ratio IC50 is 16.8.

And the IC50 [12]?
The IC50 was 56 nM.

What about the selectivity ratio [13] of the same compound?
Its selectivity ratio is 5.69.

And the IC50 [14]?
Its IC50 is 1.2 nM.

What about the Activity [15] of the same compound?
The Activity was 45.69%.

And the Activity [16]?
Its Activity is 4.29%.
